According to paper PMC12454493, “Insight on novel sulfamoylphenyl pyrazole derivatives as anticancer carbonic anhydrase inhibitors” (Molecular Diversity, 2024):

Columns and labels:
Type in all cases: cell-based
[1] = test system: HL-60(TB); assay: NCI-60 one-dose SRB screen (Leukemia); conditions: Homo sapiens, single dose 10 µM, 48 h, read-out: Growth inhibition percent (GI %)
Description: (§1) The National Cancer Institute (NCI) Developmental Therapeutic Program (www.dtp.nci.nih.gov) selected the 20 novel synthesized compounds 4a-e, 5a-e, 6a-c, 9a-e, 10 and 11 to test for their anticancer activity at a single dose of 10 µM using SRB assay. […] Supplementary Data S3; Table S1 presents the detailed screening results of the most promising compounds. The preliminary screening’s detailed results for the remaining compounds are elucidated in the (Supplementary Data S3; Table S2).
(§2) The guidelines of the Drug Evaluation Branch’s protocol at the NCI in Bethesda served as the basis for the in vitro anticancer screening assays. at one dose 10 µM against a panel of 60 cancer cell lines. The human tumor cell lines used belonged to nine panels: leukemia, melanoma, lung, colon, CNS, ovarian, renal, prostate and breast cancers using the sulforhodamine B (SRB) assay in a 48 h drug exposure protocol.

[2] = test system: SR; assay: NCI-60 one-dose SRB screen (Leukemia); conditions: Homo sapiens, single dose 10 µM, 48 h, read-out: Growth inhibition percent (GI %)
Description: as §1, §2

[3] = test system: MOLT-4; assay: NCI-60 one-dose SRB screen (Leukemia); conditions: Homo sapiens, single dose 10 µM, 48 h, read-out: Growth inhibition percent (GI %)
Description: as §1, §2

[4] = test system: RPMI-8226; assay: NCI-60 one-dose SRB screen (Leukemia); conditions: Homo sapiens, single dose 10 µM, 48 h, read-out: Growth inhibition percent (GI %)
Description: as §1, §2

[5] = test system: K-562; assay: NCI-60 one-dose SRB screen (Leukemia); conditions: Homo sapiens, K562, single dose 10 µM, 48 h, read-out: Growth inhibition percent (GI %)
Description: as §1, §2

[6] = test system: CCRF-CEM; assay: NCI-60 one-dose SRB screen (Leukemia); conditions: Homo sapiens, single dose 10 µM, 48 h, read-out: Growth inhibition percent (GI %)
Description: as §1, §2

[7] = test system: SNB-75; assay: NCI-60 one-dose SRB screen (CNS Cancer); conditions: Homo sapiens, single dose 10 µM, 48 h, read-out: Growth inhibition percent (GI %)
Description: as §1, §2

[8] = test system: SF-268; assay: NCI-60 one-dose SRB screen (CNS Cancer); conditions: Homo sapiens, single dose 10 µM, 48 h, read-out: Growth inhibition percent (GI %)
Description: as §1, §2

[9] = test system: SNB-19; assay: NCI-60 one-dose SRB screen (CNS Cancer); conditions: Homo sapiens, single dose 10 µM, 48 h, read-out: Growth inhibition percent (GI %)
Description: as §1, §2

[10] = test system: SF-295; assay: NCI-60 one-dose SRB screen (CNS Cancer); conditions: Homo sapiens, single dose 10 µM, 48 h, read-out: Growth inhibition percent (GI %)
Description: as §1, §2

[11] = test system: SF-539; assay: NCI-60 one-dose SRB screen (CNS Cancer); conditions: Homo sapiens, single dose 10 µM, 48 h, read-out: Growth inhibition percent (GI %)
Description: as §1, §2

[12] = test system: U251; assay: NCI-60 one-dose SRB screen (CNS Cancer); conditions: Homo sapiens, U-251, single dose 10 µM, 48 h, read-out: Growth inhibition percent (GI %)
Description: as §1, §2

[13] = test system: NCI-H522; assay: NCI-60 one-dose SRB screen (Non-Small Cell Lung Cancer); conditions: Homo sapiens, single dose 10 µM, 48 h, read-out: Growth inhibition percent (GI %)
Description: as §1, §2

[14] = test system: HOP-92; assay: as above; conditions: Homo sapiens, single dose 10 µM, 48 h, read-out: Growth inhibition percent (GI %)
Description: as §1, §2

[15] = test system: NCI-H226; assay: as above; conditions: Homo sapiens, single dose 10 µM, 48 h, read-out: Growth inhibition percent (GI %)
Description: as §1, §2

[16] = test system: A549/ATCC; assay: as above; conditions: Homo sapiens, single dose 10 µM, 48 h, read-out: Growth inhibition percent (GI %)
Description: as §1, §2

[17] = test system: NCI-H460; assay: as above; conditions: Homo sapiens, single dose 10 µM, 48 h, read-out: Growth inhibition percent (GI %)
Description: as §1, §2

[18] = test system: HOP-62; assay: as above; conditions: Homo sapiens, single dose 10 µM, 48 h, read-out: Growth inhibition percent (GI %)
Description: as §1, §2

[19] = test system: EKVX; assay: as above; conditions: Homo sapiens, single dose 10 µM, 48 h, read-out: Growth inhibition percent (GI %)
Description: as §1, §2

[20] = test system: NCI-H23; assay: as above; conditions: Homo sapiens, single dose 10 µM, 48 h, read-out: Growth inhibition percent (GI %)
Description: as §1, §2

[21] = test system: NCI-H322M; assay: as above; conditions: Homo sapiens, single dose 10 µM, 48 h, read-out: Growth inhibition percent (GI %)
Description: as §1, §2

[22] = test system: OVCAR-4; assay: NCI-60 one-dose SRB screen (Ovarian cancer); conditions: Homo sapiens, single dose 10 µM, 48 h, read-out: Growth inhibition percent (GI %)
Description: as §1, §2

[23] = test system: OVCAR-5; assay: NCI-60 one-dose SRB screen (Ovarian cancer); conditions: Homo sapiens, single dose 10 µM, 48 h, read-out: Growth inhibition percent (GI %)
Description: as §1, §2

[24] = test system: OVCAR-8; assay: NCI-60 one-dose SRB screen (Ovarian cancer); conditions: Homo sapiens, single dose 10 µM, 48 h, read-out: Growth inhibition percent (GI %)
Description: as §1, §2

[25] = test system: IGROV1; assay: NCI-60 one-dose SRB screen (Ovarian cancer); conditions: Homo sapiens, IGROV-1, single dose 10 µM, 48 h, read-out: Growth inhibition percent (GI %)
Description: as §1, §2

[26] = test system: OVCAR-3; assay: NCI-60 one-dose SRB screen (Ovarian cancer); conditions: Homo sapiens, single dose 10 µM, 48 h, read-out: Growth inhibition percent (GI %)
Description: as §1, §2

[27] = test system: SK-OV-3; assay: NCI-60 one-dose SRB screen (Ovarian cancer); conditions: Homo sapiens, single dose 10 µM, 48 h, read-out: Growth inhibition percent (GI %)
Description: as §1, §2

[28] = test system: NCI/ADR-RES; assay: NCI-60 one-dose SRB screen (Ovarian cancer); conditions: Homo sapiens, single dose 10 µM, 48 h, read-out: Growth inhibition percent (GI %)
Description: as §1, §2

[29] = test system: HT29; assay: NCI-60 one-dose SRB screen (Colon Cancer); conditions: Homo sapiens, HT-29, single dose 10 µM, 48 h, read-out: Growth inhibition percent (GI %)
Description: as §1, §2

[30] = test system: SW-620; assay: NCI-60 one-dose SRB screen (Colon Cancer); conditions: Homo sapiens, single dose 10 µM, 48 h, read-out: Growth inhibition percent (GI %)
Description: as §1, §2

Structure (SMILES): Cc1ccc(-c2nn(-c3ccc(S(N)(=O)=O)cc3)cc2C(=O)OCC(=O)Nc2ccc(S(N)(=O)=O)cc2)cc1 [Compound 4b, 2-Oxo-2-[(4-sulfamoylphenyl)amino] ethyl 1-(4-sulfamoylphenyl)-3-(p-tolyl)-1H-pyrazole-4-carboxylate]
- inhibition at 10 µM [1]: 5.09%
- inhibition at 10 µM [2]: 30.2%
- inhibition at 10 µM [3]: < 5%
- inhibition at 10 µM [4]: < 5%
- inhibition at 10 µM [5]: 7.16%
- inhibition at 10 µM [6]: < 5%
- inhibition at 10 µM [7]: < 5%
- inhibition at 10 µM [8]: 10.3%
- inhibition at 10 µM [9]: < 5%
- inhibition at 10 µM [10]: < 5%
- inhibition at 10 µM [11]: 20.3%
- inhibition at 10 µM [12]: < 5%
- inhibition at 10 µM [13]: 25.6%
- inhibition at 10 µM [14]: < 5%
- inhibition at 10 µM [15]: < 5%
- inhibition at 10 µM [16]: 7.63%
- inhibition at 10 µM [17]: < 5%
- inhibition at 10 µM [18]: < 5%
- inhibition at 10 µM [19]: < 5%
- inhibition at 10 µM [20]: < 5%
- inhibition at 10 µM [21]: 6.16%
- inhibition at 10 µM [22]: < 5%
- inhibition at 10 µM [23]: 5.99%
- inhibition at 10 µM [24]: < 5%
- inhibition at 10 µM [25]: < 5%
- inhibition at 10 µM [26]: < 5%
- inhibition at 10 µM [27]: < 5%
- inhibition at 10 µM [28]: < 5%
- inhibition at 10 µM [29]: 11.6%
- inhibition at 10 µM [30]: < 5%
